Measured values published in patent US7855076B2, “Use of discoidin domain receptor 1 (DDR1) and agents that affect the DDR1/collagen pathway” (The United States of America as represented by the …, priority 2002, dated 2010).

How the values were obtained:
Assay type in all cases: cell-based, human
DDR1 mRNA = DDR1 mRNA expression in PBMC by Northern blotting; settings: 8 hours, TNF-α 5 ng/ml, IL-1β 10 ng/ml, IFN-γ 50 U/ml, GM-CSF 10 ng/ml, LPS 1 μg/ml, PHA 5 μg/ml
Protocol: PMN and PBMC were maintained at a density of 5×10^6 cells/ml in the complete medium in six-well tissue culture cluster (Coster, Cambridge, Mass.; 3 ml/well). Total RNA was extracted from each culture by using TRIZOL® Reagent. PolyA mRNA was purified on Oligotex columns (Qiagen, Valencia, Calif.). Northern blot analysis was performed as described (Yoshimura, J. Immunol. 150:5025, 1993), except that ULTRAhyb (Ambion) was used. A human DDR1 cDNA (757-bp) was obtained by PCR from a U-105 human glioblastoma cell line cDNA library and was ligated into the EcoRI/HindIII site of the pBluescript (Stratagene, La Jolla, Calif.). The sense primer was 5′-[…]-3′ (SEQ ID NO: 2; corresponding to residues between 68 and 87 in the nucleotide sequence of the trkE cDNA, GenBank accession number X74979) and the antisense primer was 5′-[…]-3′ (SEQ ID NO: 3; corresponding to residues between 805 and 824 in the nucleotide sequence of the trkE cDNA).
Freshly isolated PBMC expressed only a low level of DDR1 mRNA. The expression level was increased about eightfold when the cells were incubated in either RPMI 1640 or RPMI 1640 containing 10% FCS.

DDR1 [1] = assay: DDR1 autophosphorylation and MAP kinase phosphorylation in iDC and mDC; settings: DCs, TNF-α stimulation
Protocol: To measure the kinetics of DDR1autophosphorylation, 1×10^7 iDC or TNF-α-induced mDCs were plated on dishes, serum-starved in RPMI 1640 containing 1% FCS for 10 hours, and subsequently activated with agonistic anti-DDR1 IgM (5 μg/ml) or control IgM (5 ug/ml) for varous times. Cell lysates were prepared, DDR1 was immunoprecipitated using anti-DDR1 Ab (C-20), and tyrosine-phosphorylation of DDR1 was analyzed by Western blotting using a mouse monoclonal anti-phosphotyrosine IgG and a sheep anti-mouse IgG coupled with horseradish peroxidase. Peroxidase activity was visualized by the Enhanced Chemiluminescence Detection System (Amersham).
To detect phosphorylation of MAP kinases, ATF2, or MKK3/6, iDC and mDC were activated with agonistic 513 anti-DDR1 IgM or control IgM for varous times. Since TNF-α is known to activate p38 MAP kinase (Ono and Han, Cell. Signal. 12:1-13, 2000), cells were washed 6 times with PBS before activation in order to minimize the effect of TNF-α. Twenty μl of cell lysates were directly mixed with 20 μl of sample buffer and then analyzed.
Target sequence in this assay (Q08345 19-417 limits assumed): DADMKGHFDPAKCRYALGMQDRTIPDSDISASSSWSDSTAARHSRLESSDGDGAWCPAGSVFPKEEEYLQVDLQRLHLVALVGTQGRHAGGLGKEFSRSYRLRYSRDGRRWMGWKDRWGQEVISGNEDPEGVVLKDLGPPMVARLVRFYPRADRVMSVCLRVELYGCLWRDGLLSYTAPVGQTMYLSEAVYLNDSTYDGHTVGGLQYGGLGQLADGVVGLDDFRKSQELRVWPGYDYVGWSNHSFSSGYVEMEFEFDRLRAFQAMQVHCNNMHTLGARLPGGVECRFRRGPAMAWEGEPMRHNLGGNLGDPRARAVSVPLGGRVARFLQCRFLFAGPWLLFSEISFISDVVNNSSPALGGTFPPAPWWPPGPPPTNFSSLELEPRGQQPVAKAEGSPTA

DDR1 [2] = assay: Cell-surface DDR1 expression on PMN by flow cytometry
Protocol: PMN were incubated in presence of IFN-γ or GM-CSF for 24 hours and the expression of cell-surface DDR1 was measured by flow cytometry using an antibody raised against the extracellular domain of the receptor. One hundred thousand cells were suspended in 50 μl of cold PBS containing 0.1% NaN3, […] BSA and 200 μg/ml human IgG in a Falcon 2052, tube, and incubated for 10 minutes on ice. One μg of anti-DDR1 rabbit polyclonal antibody raised aginst the N-terminus of DDR1 (Transgenic, Inc., Kumamoto, Japan), or control mouse IgG was added to each tube and the cells were incubated for another 15 minutes on ice. The cells were washed with PBS, and then incubated with 1 μg of FITC-conjugated goat anti-mouse IgG for 15 minutes on ice. At the end of incubation, PI was added to each tube (100 μM). The cells were washed by PBS, and subsequently analyzed by using a FACS scan (Becton Dickinson). Dead cells, determined by the incorporation of PI, were gated out. Results were processed by using the Cellquest software (Becton Dickinson).

activation of ERK1, ERK2, JNK, MKK3/6 (DDR1 [1]): rapidly activated
Substance: TNF-α
level of DDR1 mRNA expression (DDR1 mRNA): further augmented
IFNγ-induced DDR1 expression (DDR1 [2]): almost completely inhibited
